Measured values reported in US5369104A, “Pyridazine compounds, their production and use” (Takeda Chemical Industries, Ltd., priority 1991, dated 1994).

Tested on: PAF-induced bronchoconstriction
Experiment: Action against PAF-induced bronchoconstriction in guinea pigs (Konzett-R6essler method)
Type: in vivo, guinea pig (male Hartley)
Conditions: guinea pig; 10 mg/Kg orally, 1 hour before PAF (1 μg/Kg, i.v.); recorded for 15 minutes
Protocol: (Action against PAF-induced bronchoconstriction in guinea pigs)
Male Hartley guinea pigs (body weight 500 g) were used. The bronchoconstriction reaction in the guinea pig which has intravenously received PAF (1 μg/kg) was measured by the Konzett-R6essler method. The trachea of the guinea pig with its back fixed was incised under anesthesia condition with urethane (intraperitoneal injection, 1.50 g/Kg) and connected with an artificial respirator via a cannula. The branch of the tracheal cannula was connected with a transducer (7020 type, Ugobasile). Air was sent to the trachea at the volume of 3-7 ml/stroke, at the stroke of 70 strokes/min. at load pressure of 10cm H2 O to lung and overflowed air volume was recorded with Rectegraph (Recte-Hori-8s, Sanei Sokuki) via the transducer. After the guinea pig was treated with galamine (1 mg/Kg, i.v.), PAF (1 μg/Kg) dissolved in a physiological saline solution was administered to the guinea pig via a jugular venous cannula and the bronchoconstriction reaction induced thereby was recorded for 15 minutes. The drug (10 mg/Kg) suspended in a 5% gum arabic solution was administered orally 1 hour before the injection of PAF.
Action against PAF-induced bronchoconstriction of guinea pigs

## Cc1cc2nccn2nc1CCC(C)(C)CCS(N)(=O)=O [Example 4, 6-(3,3-dimethyl-5-sulfamoyl-1-pentyl)-7-methylimidazo[1,2-b]pyridazine]
  Inhibition (%) of PAF-induced bronchoconstriction: 86%
